Literature values, collected in patent publication US8269040B2, “Derivatives of venlafaxine and methods of preparing and using the same” (Wyeth LLC, priority 1999, dated 2012).

Tests used:
serotonin uptake = conditions: versus the other enantiomer
[1] = tested on: norepinephrine synaptosomal uptake; conditions: versus the other enantiomer
norepinephrine uptake = conditions: in vitro; versus parent compound venlafaxine
dopamine uptake = dopamine uptake (Rattus norvegicus, UniProt P23977); conditions: in vitro; versus parent compound venlafaxine
Sequence of dopamine uptake (P23977 whole entry): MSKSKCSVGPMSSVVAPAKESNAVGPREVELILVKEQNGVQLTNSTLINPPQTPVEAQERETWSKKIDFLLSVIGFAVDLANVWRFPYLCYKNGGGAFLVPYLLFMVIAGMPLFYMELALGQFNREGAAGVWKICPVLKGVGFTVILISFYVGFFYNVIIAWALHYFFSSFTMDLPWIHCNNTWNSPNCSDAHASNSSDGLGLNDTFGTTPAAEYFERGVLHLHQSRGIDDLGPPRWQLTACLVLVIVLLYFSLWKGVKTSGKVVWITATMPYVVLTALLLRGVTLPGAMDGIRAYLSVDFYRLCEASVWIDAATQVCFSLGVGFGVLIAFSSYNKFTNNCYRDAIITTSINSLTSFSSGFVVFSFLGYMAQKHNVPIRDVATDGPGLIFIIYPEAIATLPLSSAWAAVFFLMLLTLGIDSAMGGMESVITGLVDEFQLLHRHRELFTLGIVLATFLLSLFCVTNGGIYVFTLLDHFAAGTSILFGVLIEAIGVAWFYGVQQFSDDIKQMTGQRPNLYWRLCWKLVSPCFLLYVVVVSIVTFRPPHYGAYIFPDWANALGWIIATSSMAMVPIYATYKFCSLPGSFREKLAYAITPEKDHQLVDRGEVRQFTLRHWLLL

COc1ccc(C(CN(C)C)C2(O)CCCCC2)cc1 (single isomer, unassigned; (+)) [(+) enantiomer]
selectivity in inhibiting serotonin uptake, comparison of enantiomers (serotonin uptake): more selective

COc1ccc(C(CN(C)C)C2(O)CCCCC2)cc1 (single isomer, unassigned; (-)) [(−) enantiomer]
potency as inhibitor of norepinephrine synaptosomal uptake, comparison of enantiomers [1]: more potent inhibitor

CN(C)CC(c1ccc(O)cc1)C1(O)CCCCC1 (racemic) [O-desmethylvenlafaxine, (±)-1-[2-(dimethylamino)-1-(4-phenol)ethyl]cyclohexanol]
potency as inhibitor of norepinephrine uptake compared with venlafaxine (norepinephrine uptake): more potent inhibitor
half-life relative to that of venlafaxine (compared with venlafaxine): approximately 2.5 times
half-life (t1/2) (in vivo): about 10 hours
potency as inhibitor of dopamine uptake compared with venlafaxine (dopamine uptake): more potent inhibitor
